# Test results taken from patent US5843916A, “Cyclic amp analogues, individually and in pairs, to inhibit neoplastic cell growth” (priority 1994, dated 1998).
# Like-named read-outs stand apart in the source and are kept apart here.
# Experiments:
# [1] = target: T1, Protein kinase type I (cAKI) (Oryctolagus cuniculus, UniProt G1TDN4); assay: Protein kinase activation (Table 15); type: biochemical, rabbit (skeletal muscle); conditions: half-maximum activation; U. M.: unmeasurable
# T1 construct: prepared from rabbit skeletal muscle and bovine heart; from tissue; host or cells: rabbit skeletal muscle
# T1 sequence (G1TDN4 1-381): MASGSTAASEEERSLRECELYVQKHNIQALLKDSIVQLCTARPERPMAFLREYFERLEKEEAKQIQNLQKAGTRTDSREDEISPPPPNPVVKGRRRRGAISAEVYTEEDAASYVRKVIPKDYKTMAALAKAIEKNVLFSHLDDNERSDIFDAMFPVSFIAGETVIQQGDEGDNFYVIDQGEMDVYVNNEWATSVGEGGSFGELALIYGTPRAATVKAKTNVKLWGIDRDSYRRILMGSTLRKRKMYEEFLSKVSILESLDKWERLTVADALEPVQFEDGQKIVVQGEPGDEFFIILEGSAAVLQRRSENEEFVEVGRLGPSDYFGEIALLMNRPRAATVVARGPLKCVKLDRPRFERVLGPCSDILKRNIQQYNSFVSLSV
# Method: ATP to Kemptide as described by Ogreid et al., Eur. J. Biochem. 150: 219-227 (1985).
# Protein kinases types I (cAKI) and II (cAKII) were
# prepared from rabbit skeletal muscle and bovine heart,
# respectively, as described in D.o slashed.skeland et al. (J. Biol.
# of the protein kinase in Ogreid et al. (Eur. J. Biochem.
# [2] = test system: RIα and RIIβ isoforms of the cAMP receptor protein; protein kinase type I and II; conditions: cited from earlier work
# [3] = test system: HL-60 human leukemia cells; assay: Growth inhibition of HL-60 leukemia cells (Example 3, Table 16); type: cell-based; conditions: for IC50: Homo sapiens
# Method in brief: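 HL-60 cells were grown in suspension in RPMI 1640 with 10% heat-inactivated FBS, starting at 1 × 10^5 cells/dish. Cells were counted on a Coulter Counter after 3 or 6 days of exposure. IC50 values were read from dose-response data and averaged over two or more separate experiments.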
# [4] = no test described at this place
smiles,measurement,setting,value
"Nc1ncnc2c1nc(Cl)n2[C@@H]1O[C@@H]2COP(=O)(O)O[C@H]2[C@H]1O [8-Cl-cAMP, 8-chloro-adenosine 3': 5'-monophosphate]","Activation Constant (Ka), cAKI",[1],1.8 × 10^-8
same,effect on protein kinase isozyme type I,[2]; literature,drastically downregulates type I protein kinase
same,effect on protein kinase isozyme type II,[2]; literature,upregulating type II protein kinase in its holoenzyme form
same,effect on RIIβ isoform,[2]; [4],"upregulates the RII β, isoform"
same,effect on RIα isoform,[2]; [4],downregulates the RIα isoform
same,growth inhibitory potency,[3]; HL-60,potent growth inhibitor of HL-60 cells
same,IC50,"[3]; HL-60, 72 h, read-out: Growth inhibition (IC50), Day 3",5000 nM
same,IC50,"[3]; HL-60, 144 h, read-out: Growth inhibition (IC50), Day 6",400 nM
